According to ChEMBL document CHEMBL1134169, “Serotonergic and dopaminergic activities of rigidified (R)-aporphine derivatives” (Bioorg Med Chem Lett, 2001):

Assays:
[1] = target: 5-hydroxytryptamine receptor 7 (Rattus norvegicus, UniProt P32305); assay: In vitro binding affinity towards cloned rat 5-hydroxytryptamine 7 receptor using [3H]5-HT as radioligand
[2] = target: T1, 5-hydroxytryptamine receptor 1A (Homo sapiens, UniProt P08908); assay: In vitro binding affinity towards cloned human 5-hydroxytryptamine 1A receptor expressed in Chinese hamster ovary (CHO) cells using [3H]8-OH-DPAT as radioligand; type: cell-based
T1 sequence (P08908 whole entry): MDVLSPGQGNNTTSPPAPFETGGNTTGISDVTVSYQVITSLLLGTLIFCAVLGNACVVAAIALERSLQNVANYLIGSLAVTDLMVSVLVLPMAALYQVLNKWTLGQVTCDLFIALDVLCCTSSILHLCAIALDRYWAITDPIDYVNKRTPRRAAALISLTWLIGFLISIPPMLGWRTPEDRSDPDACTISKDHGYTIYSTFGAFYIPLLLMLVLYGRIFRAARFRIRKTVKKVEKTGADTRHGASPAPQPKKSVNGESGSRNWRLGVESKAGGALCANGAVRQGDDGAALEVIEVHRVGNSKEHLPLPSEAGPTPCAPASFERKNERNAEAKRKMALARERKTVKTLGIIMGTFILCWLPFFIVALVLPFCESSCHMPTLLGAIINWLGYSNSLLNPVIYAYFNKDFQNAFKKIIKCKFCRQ

D(2) dopamine receptor = D(2) dopamine receptor (Homo sapiens, UniProt P14416); assay: In vitro binding affinity towards cloned human Dopamine receptor D2A using [3H]- Raclopride as radioligand.
Sequence of D(2) dopamine receptor (P14416 whole entry): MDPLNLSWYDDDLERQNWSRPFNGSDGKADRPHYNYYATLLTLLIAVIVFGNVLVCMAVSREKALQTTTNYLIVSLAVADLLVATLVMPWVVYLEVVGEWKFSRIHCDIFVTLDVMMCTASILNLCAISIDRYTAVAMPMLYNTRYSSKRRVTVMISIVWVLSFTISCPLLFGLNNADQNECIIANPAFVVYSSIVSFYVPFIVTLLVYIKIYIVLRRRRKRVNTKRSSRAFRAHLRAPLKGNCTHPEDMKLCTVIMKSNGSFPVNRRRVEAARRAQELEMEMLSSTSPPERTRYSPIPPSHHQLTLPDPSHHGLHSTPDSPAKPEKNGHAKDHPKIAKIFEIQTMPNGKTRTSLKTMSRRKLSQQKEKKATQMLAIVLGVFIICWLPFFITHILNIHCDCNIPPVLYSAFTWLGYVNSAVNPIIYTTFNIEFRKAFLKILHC

[3] = target: T2, 5-hydroxytryptamine receptor 1A (Rattus norvegicus, UniProt P19327); assay: In vitro binding affinity towards 5-hydroxytryptamine 1A receptor using [3H]8-OH-DPAT as radioligand in rat hippocampus membrane.; type: cell membranes
T2 sequence (P19327 whole entry): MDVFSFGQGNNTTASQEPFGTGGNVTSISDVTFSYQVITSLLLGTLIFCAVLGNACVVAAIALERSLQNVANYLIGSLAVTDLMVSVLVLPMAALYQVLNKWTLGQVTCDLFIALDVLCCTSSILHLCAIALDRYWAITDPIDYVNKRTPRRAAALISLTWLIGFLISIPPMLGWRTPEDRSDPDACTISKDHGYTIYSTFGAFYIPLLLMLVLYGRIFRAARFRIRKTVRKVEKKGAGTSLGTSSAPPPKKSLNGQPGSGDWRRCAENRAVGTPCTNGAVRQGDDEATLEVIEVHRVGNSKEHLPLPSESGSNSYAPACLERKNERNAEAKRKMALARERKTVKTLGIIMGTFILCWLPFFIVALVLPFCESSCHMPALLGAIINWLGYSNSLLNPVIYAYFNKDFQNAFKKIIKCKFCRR

Sequence of 5-hydroxytryptamine receptor 7 (P32305 whole entry): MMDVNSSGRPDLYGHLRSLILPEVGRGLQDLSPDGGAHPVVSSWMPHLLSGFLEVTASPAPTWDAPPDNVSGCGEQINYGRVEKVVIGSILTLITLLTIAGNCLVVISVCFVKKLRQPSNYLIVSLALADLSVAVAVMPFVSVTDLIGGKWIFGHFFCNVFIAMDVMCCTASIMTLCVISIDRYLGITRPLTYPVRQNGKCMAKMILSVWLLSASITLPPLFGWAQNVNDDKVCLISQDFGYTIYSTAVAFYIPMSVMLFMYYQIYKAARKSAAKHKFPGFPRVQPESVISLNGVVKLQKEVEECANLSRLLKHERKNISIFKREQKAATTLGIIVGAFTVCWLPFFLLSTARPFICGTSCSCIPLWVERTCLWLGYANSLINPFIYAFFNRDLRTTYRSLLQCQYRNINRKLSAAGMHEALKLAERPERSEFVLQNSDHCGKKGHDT

Ki [3]	Compound	Ki [1]	Ki [2]	Ki (D(2) dopamine receptor)
–	CN1CCc2ccc3cnc4cccc5c4c3c2[C@H]1C5	27.2 nM	62.3 nM	1330 nM
–	CN1CCc2ccc3ncc4cccc5c4c3c2[C@H]1C5	81 nM	33.9 nM	327 nM
1150 nM	CN1CCc2ccc3c(=O)oc4cccc5c4c3c2[C@H]1C5	283 nM	–	541 nM
2030 nM	CN1CCc2ccc3oc(=O)c4cccc5c4c3c2[C@H]1C5	1480 nM	–	265 nM
–	CN1CCc2ccc3[nH]c(=O)c4cccc5c4c3c2[C@H]1C5	341 nM	373 nM	6110 nM
–	CN1CCc2ccc3c(=O)[nH]c4cccc5c4c3c2[C@H]1C5	54.5 nM	178 nM	54.6 nM
